These results are taken from US10377755B2, “BCL-2 inhibitors” (Newave Pharmaceutical Inc., priority 2016, dated 2019).

pEC50, pIC50: −log10 of the molar value.

The test system of one data set is H146. In words: In vitro anti-proliferation assay (ATPlite) in BCL-XL-dependent small cell lung cancer cell line H146. Type of data set: cell-based. Conditions: Homo sapiens, NCI-H146; about 72 hours, 5% FBS. As for the experimental part: Cell antiproliferation is assayed by PerkinElmer ATPlite™ Luminescence Assay System. Briefly, the various test cancer cell lines are plated at a density of about 1×10^4 cells per well in Costar 96-well plates, and are incubated with different concentrations of compounds for about 72 hours in medium supplemented with 5% FBS. One lyophilized substrate solution vial is then reconstituted by adding 5 mL of substrate buffer solution, and is agitated gently until the solution is homogeneous. About 50 μL of mammalian cell lysis solution is added to 100 μL of cell suspension per well of a microplate, and the plate is shaken for about five minutes in an orbital shaker at ˜700 rpm. This procedure is used to lyse the cells and to stabilize the ATP. Next, 50 μL substrate solution is added to the wells and microplate is shaken for five minutes in an orbital shaker at ˜700 rpm. Finally, the luminescence is measured by a PerkinElmer TopCount® Microplate Scintillation Counter. Such assays, carried out with a range of doses of test compounds, allow the determination of the cellular anti-antiproliferative IC50 of the compounds of the present invention.
Background: Cellular ATP, detected with luciferase, serves as a proxy for viable cell number.

A further data set addresses Mcl-1 (Homo sapiens (Human), UniProt Q07820). To be noted: cited from earlier work.
The subject of another data set is RS4;11 cells. To be noted: cited from earlier work.
Data set [1] concerns CLL. Conditions: average; read-out: average EC50, apoptosis in CLL; cited from earlier work.
In a further data set the test system is RS4;11 xenografts. Conditions: single dose of 100 mg/kg; cited from earlier work.
For data set [2], the system named is CLL. Conditions: Human Phase I and II; cited from earlier work.

Chain of Mcl-1 (Q07820 whole entry): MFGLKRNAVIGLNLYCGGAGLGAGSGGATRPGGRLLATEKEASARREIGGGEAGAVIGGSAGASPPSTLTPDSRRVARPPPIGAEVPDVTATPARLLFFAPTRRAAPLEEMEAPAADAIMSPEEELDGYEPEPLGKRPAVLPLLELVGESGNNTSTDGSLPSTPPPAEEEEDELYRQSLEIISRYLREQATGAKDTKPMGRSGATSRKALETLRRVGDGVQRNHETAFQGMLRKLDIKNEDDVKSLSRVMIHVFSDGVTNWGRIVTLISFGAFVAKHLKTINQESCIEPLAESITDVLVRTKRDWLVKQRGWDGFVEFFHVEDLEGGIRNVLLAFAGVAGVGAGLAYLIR

Molecule `CC1(C)CCC(CN2CCN(c3ccc(C(=O)NS(=O)(=O)c4ccc(NCC5CCOCC5)c([N+](=O)[O-])c4)c(Oc4cnc5[nH]ccc5c4)c3)CC2)=C(c2ccc(Cl)cc2)C1` [ABT-199] showed a pIC50 with H146 of less than 5.70. Moreover, the “activity to Mcl-1” value at Mcl-1 is given as “no activity”. For the same molecule, in the data set with RS4;11 cells, the pEC50 is 8.10. In addition, the pEC50 with CLL [1] was 8.52. In the data set with RS4;11 xenografts, the “maximal tumor growth inhibition” value is given as 95% and the tumor growth delay is reported as 152%. In the data set on CLL [2], the “clinical efficacy for CLL” value is reported as “highly efficacious” and the clinical toxicity entry is on record as “lethal tumour lysis syndrome”.

The pIC50 is the negative decadic logarithm of the IC50, by convention in mol/L. A lower pIC50 goes with a high IC50. The term pEC50 denotes the EC50 on a negative log10 scale, so that one unit is a factor of ten.
